# In patent US20140128402A1, “PHARMACEUTICAL COMBINATION” (IPCA Laboratories Limited, priority 2011, published 2014):
# Tests used:
# Assay type in all cases: in vivo, Wistar rats
# [1] = tested on: STZ-induced diabetic rats; test: Study No 2: body weight, water intake and food intake in STZ-induced diabetic rats; conditions: for AVERAGE FOOD INTAKE / AVERAGE WATER INTAKE / Body Weight: oral
# [2] = tested on: STZ-induced diabetic rats; test: Study No 2: biochemical parameters in STZ-induced diabetic rats; conditions: for Creatinine / HbA1c / Total Protein / Urea: after 28 days, oral
# [3] = tested on: STZ induced diabetic rats; test: Study No 2: blood glucose in STZ induced diabetic rats (HCQ with vildagliptin and saxagliptin); conditions: for Plasma glucose concentration: oral
# Description: In this experiment 96 Wistar rats weighing 150-200 g of either sex were divided randomly into 16 groups consisting of 6 rats each. The study drugs were dissolved in water/suspended in vehicle [0.1% w/v suspension of Tween 80 and carboxymethylcellulose (CMC) in water] and administered orally for 28 days. Group 1 (normal vehicle control) consisted of normal rats that neither received Streptozotocin (STZ) nor any test drug; Group 2 served as Streptozotocin induced diabetic control [Diabetes was induced in rats by single administration of Streptozotocin (55 mg/kg/i.p.) dissolved in 0.1 M-citrate buffer, pH 4.5]. Forty-eight hours later, blood samples were collected and glucose levels were determined to confirm the development of diabetes. Only animals showing hyperglycaemia (blood glucose levels>250 mg/dl) were considered as diabetic and received vehicle orally; Group 3 was diabetic rats treated with hydroxychloroquine (HCQ) (22.5 mg/kg); Group 4 was diabetic rats treated with HCQ (45 mg/kg), Group 5 was diabetic rats treated with vildagliptin (VG) 6 mg/kg; Group 6 was diabetic rats treated with VG 12 mg/kg; Group 7 was diabetic rats treated with HCQ 22.5 mg/kg+VG 12 mg/kg and Group 8 was diabetic rats treated with combination of HCQ 45 mg/kg and VG 6 mg/kg; Group 9 was diabetic rats treated with saxagliptin (SG) 0.3 mg/kg; Group 10 was diabetic rats treated with Saxagliptin (SG) 0.6 mg/kg; Group 11 was diabetic rats treated with combination of HCQ 45 mg/kg+SG 0.3 mg/kg; Group 12 was diabetic rats treated with combination of HCQ 22.5 mg/kg+SG 0.6 mg/kg; Group 13 was diabetic rats treated with combination of HCQ 22.5 mg/kg and VG 6 mg/kg; Group 14 was diabetic rats treated with combination of HCQ 45 mg/kg and VG 12 mg/kg; Group 15 was diabetic rats treated with combination of HCQ 22.5 mg/kg+SG 0.3 mg/kg; Group 16 was diabetic rats treated with combination of HCQ 45 mg/kg+SG 0.6 mg/kg.
# Blood glucose level was measured in normal and experimental rats at 0, 7th, 14th, 21st and 28th day of administration.
# [4] = Day 0, HCQ 22.5, VG 6, SG 0.3 mg/kg alone, HCQ+VG 22.5+6, HCQ+SG 22.5+0.3 mg/kg/day
# [5] = Day 0, HCQ 45, VG 12, SG 0.6 mg/kg alone, HCQ+VG 45+12, HCQ+SG 45+0.6 mg/kg/day
# [6] = Day 7, HCQ 22.5, VG 6, SG 0.3 mg/kg alone, HCQ+VG 22.5+6, HCQ+SG 22.5+0.3 mg/kg/day
# [7] = Day 7, HCQ 45, VG 12, SG 0.6 mg/kg alone, HCQ+VG 45+12, HCQ+SG 45+0.6 mg/kg/day
# [8] = Day 14, HCQ 22.5, VG 6, SG 0.3 mg/kg alone, HCQ+VG 22.5+6, HCQ+SG 22.5+0.3 mg/kg/day
# [9] = Day 14, HCQ 45, VG 12, SG 0.6 mg/kg alone, HCQ+VG 45+12, HCQ+SG 45+0.6 mg/kg/day
# [10] = Day 21, HCQ 22.5, VG 6, SG 0.3 mg/kg alone, HCQ+VG 22.5+6, HCQ+SG 22.5+0.3 mg/kg/day
# [11] = Day 21, HCQ 45, VG 12, SG 0.6 mg/kg alone, HCQ+VG 45+12, HCQ+SG 45+0.6 mg/kg/day
# [12] = Day 28, HCQ 22.5, VG 6, SG 0.3 mg/kg alone, HCQ+VG 22.5+6, HCQ+SG 22.5+0.3 mg/kg/day
# [13] = Day 28, HCQ 45, VG 12, SG 0.6 mg/kg alone, HCQ+VG 45+12, HCQ+SG 45+0.6 mg/kg/day
# [14] = HCQ 22.5, VG 6, SG 0.3 mg/kg alone, HCQ+VG 22.5+6, HCQ+SG 22.5+0.3 mg/kg/day
# [15] = HCQ 45, VG 12, SG 0.6 mg/kg alone, HCQ+VG 45+12, HCQ+SG 45+0.6 mg/kg/day
# [16] = Day 0, HCQ 22.5, VG 6, SG 0.3 mg/kg alone, HCQ+VG 22.5+6, HCQ+SG 22.5+0.3 mg/kg
# [17] = Day 0, HCQ 45, VG 12, SG 0.6 mg/kg alone, HCQ+VG 45+12, HCQ+SG 45+0.6 mg/kg
# [18] = Day 7, HCQ 22.5, VG 6, SG 0.3 mg/kg alone, HCQ+VG 22.5+6, HCQ+SG 22.5+0.3 mg/kg
# [19] = Day 7, HCQ 45, VG 12, SG 0.6 mg/kg alone, HCQ+VG 45+12, HCQ+SG 45+0.6 mg/kg
# [20] = Day 14, HCQ 22.5, VG 6, SG 0.3 mg/kg alone, HCQ+VG 22.5+6, HCQ+SG 22.5+0.3 mg/kg
# [21] = Day 14, HCQ 45, VG 12, SG 0.6 mg/kg alone, HCQ+VG 45+12, HCQ+SG 45+0.6 mg/kg
# [22] = Day 21, HCQ 22.5, VG 6, SG 0.3 mg/kg alone, HCQ+VG 22.5+6, HCQ+SG 22.5+0.3 mg/kg
# [23] = Day 21, HCQ 45, VG 12, SG 0.6 mg/kg alone, HCQ+VG 45+12, HCQ+SG 45+0.6 mg/kg
# [24] = Day 28, HCQ 22.5, VG 6, SG 0.3 mg/kg alone, HCQ+VG 22.5+6, HCQ+SG 22.5+0.3 mg/kg
# [25] = Day 28, HCQ 45, VG 12, SG 0.6 mg/kg alone, HCQ+VG 45+12, HCQ+SG 45+0.6 mg/kg
# [26] = monotherapies, all the tested dose levels except HCQ (22.5 mg/kg), p≦0.05
smiles,measurement,setting,value
"N#C[C@@H]1C[C@@H]2C[C@@H]2N1C(=O)[C@@H](N)C12CC3CC(CC(O)(C3)C1)C2 [SG, Saxagliptin]",AVERAGE FOOD INTAKE,[1]; [4],12.13 g
same,AVERAGE WATER INTAKE,[1]; [4],23.71 mL
same,Body Weight,[1]; [4],208.33 ± 6.15 g
same,AVERAGE FOOD INTAKE,[1]; [5],12.45 g
same,AVERAGE WATER INTAKE,[1]; [5],24.86 mL
same,Body Weight,[1]; [5],211 ± 7.38 g
same,AVERAGE FOOD INTAKE,[1]; [6],14.00 g
same,AVERAGE WATER INTAKE,[1]; [6],21.12 mL
same,Body Weight,[1]; [6],199.5 ± 7.69 g
same,AVERAGE FOOD INTAKE,[1]; [7],14.45 g
same,AVERAGE WATER INTAKE,[1]; [7],21.11 mL
same,Body Weight,[1]; [7],203.17 ± 7.47 g
same,AVERAGE FOOD INTAKE,[1]; [8],12.54 g
same,AVERAGE WATER INTAKE,[1]; [8],21.67 mL
same,Body Weight,[1]; [8],197.83 ± 8.06 g
same,AVERAGE FOOD INTAKE,[1]; [9],12.00 g
same,AVERAGE WATER INTAKE,[1]; [9],21.89 mL
same,Body Weight,[1]; [9],201.17 ± 8.52 g
same,AVERAGE FOOD INTAKE,[1]; [10],13.05 g
same,AVERAGE WATER INTAKE,[1]; [10],25.17 mL
same,Body Weight,[1]; [10],196.33 ± 8.36 g
same,AVERAGE FOOD INTAKE,[1]; [11],13.26 g
same,AVERAGE WATER INTAKE,[1]; [11],26.00 mL
same,Body Weight,[1]; [11],199.83 ± 8.35 g
same,AVERAGE FOOD INTAKE,[1]; [12],14.25 g
same,AVERAGE WATER INTAKE,[1]; [12],25.19 mL
same,Body Weight,[1]; [12],193.83 ± 8.13 g
same,AVERAGE FOOD INTAKE,[1]; [13],14.00 g
same,AVERAGE WATER INTAKE,[1]; [13],25.12 mL
same,Body Weight,[1]; [13],198 ± 8.74 g
same,Creatinine,[2]; [14],1.89 ± 0.23 mg/dL
same,HbA1c,[2]; [14],10.79 ± 1.05 %
same,Total Protein,[2]; [14],6.55 ± 0.37 gm/dl
same,Urea,[2]; [14],22.74 ± 2.71 mg/dL
same,Creatinine,[2]; [15],1.81 ± 0.27 mg/dL
same,HbA1c,[2]; [15],9.65 ± 1.51 %
same,Total Protein,[2]; [15],6.62 ± 0.49 gm/dl
same,Urea,[2]; [15],21.26 ± 2.41 mg/dL
same,Plasma glucose concentration,[3]; [16],288.83 ± 26.19 mg/dL
same,Plasma glucose concentration,[3]; [17],285.5 ± 33.58 mg/dL
same,Plasma glucose concentration,[3]; [18],246.5 ± 4.89 mg/dL
same,Plasma glucose concentration,[3]; [19],146.5 ± 4.89 mg/dL
same,Plasma glucose concentration,[3]; [20],226.33 ± 12.36 mg/dL
same,Plasma glucose concentration,[3]; [21],138.5 ± 7.23 mg/dL
same,Plasma glucose concentration,[3]; [22],194 ± 38.79 mg/dL
same,Plasma glucose concentration,[3]; [23],137.5 ± 9.44 mg/dL
same,Plasma glucose concentration,[3]; [24],194.17 ± 17.17 mg/dL
same,Plasma glucose concentration,[3]; [25],161 ± 9.67 mg/dL
"N#C[C@@H]1CCCN1C(=O)CNC12CC3CC(CC(O)(C3)C1)C2 [VG, Vildagliptin]",AVERAGE FOOD INTAKE,[1]; [4],11.40 g
same,AVERAGE WATER INTAKE,[1]; [4],25.00 mL
same,Body Weight,[1]; [4],195 ± 7.18 g
same,AVERAGE FOOD INTAKE,[1]; [5],11.90 g
same,AVERAGE WATER INTAKE,[1]; [5],24.35 mL
same,Body Weight,[1]; [5],197.5 ± 6.35 g
same,AVERAGE FOOD INTAKE,[1]; [6],13.00 g
same,AVERAGE WATER INTAKE,[1]; [6],22.12 mL
same,Body Weight,[1]; [6],179.17 ± 11.27 g
same,AVERAGE FOOD INTAKE,[1]; [7],13.50 g
same,AVERAGE WATER INTAKE,[1]; [7],22.19 mL
same,Body Weight,[1]; [7],189 ± 3.52 g
same,AVERAGE FOOD INTAKE,[1]; [8],12.10 g
same,AVERAGE WATER INTAKE,[1]; [8],21.32 mL
same,Body Weight,[1]; [8],182.83 ± 12.66 g
same,AVERAGE FOOD INTAKE,[1]; [9],12.00 g
same,AVERAGE WATER INTAKE,[1]; [9],22.11 mL
same,Body Weight,[1]; [9],187.67 ± 6.38 g
same,AVERAGE FOOD INTAKE,[1]; [10],12.90 g
same,AVERAGE WATER INTAKE,[1]; [10],25.12 mL
same,Body Weight,[1]; [10],185.67 ± 11.86 g
same,AVERAGE FOOD INTAKE,[1]; [11],13.05 g
same,AVERAGE WATER INTAKE,[1]; [11],26.13 mL
same,Body Weight,[1]; [11],186.5 ± 8.83 g
same,AVERAGE FOOD INTAKE,[1]; [12],14.33 g
same,AVERAGE WATER INTAKE,[1]; [12],26.31 mL
same,Body Weight,[1]; [12],189.5 ± 11.81 g
same,AVERAGE FOOD INTAKE,[1]; [13],14.30 g
same,AVERAGE WATER INTAKE,[1]; [13],25.71 mL
same,Body Weight,[1]; [13],185.67 ± 11.69 g
same,body weight as compared to diabetic control group,"[1]; monotherapies, p≦0.05",reduction was significantly less
same,Creatinine,[2]; [14],1.78 ± 0.14 mg/dL
same,HbA1c,[2]; [14],10.76 ± 0.97 %
same,Total Protein,[2]; [14],7.08 ± 0.55 gm/dl
same,Urea,[2]; [14],21.48 ± 4.35 mg/dL
same,Creatinine,[2]; [15],1.69 ± 0.21 mg/dL
same,HbA1c,[2]; [15],9.97 ± 0.95 %
same,Total Protein,[2]; [15],7.15 ± 0.19 gm/dl
same,Urea,[2]; [15],20.23 ± 1.89 mg/dL
same,HbA1c levels as compared to diabetic control,"[2]; all tested doses, 28 days, p≦0.05",significantly (p≦0.05) reduced
same,total protein level as compared to the diabetic control group,"[2]; monotherapies at all doses, 28 days, p≦0.05",significant rise
same,creatinine levels as compared to diabetic control group,[2]; [26],significant reduction
same,urea levels as compared to diabetic control group,[2]; [26],significant reduction
same,Plasma glucose concentration,[3]; [16],296 ± 21.59 mg/dL
same,Plasma glucose concentration,[3]; [17],288 ± 11.58 mg/dL
same,Plasma glucose concentration,[3]; [18],242.17 ± 40.58 mg/dL
same,Plasma glucose concentration,[3]; [19],227 ± 40.57 mg/dL
same,Plasma glucose concentration,[3]; [20],199.83 ± 35.33 mg/dL
same,Plasma glucose concentration,[3]; [21],188.83 ± 34.23 mg/dL
same,Plasma glucose concentration,[3]; [22],191.33 ± 22.46 mg/dL
same,Plasma glucose concentration,[3]; [23],173.5 ± 15.6 mg/dL
same,Plasma glucose concentration,[3]; [24],182.67 ± 33.01 mg/dL
same,Plasma glucose concentration,[3]; [25],167.5 ± 9.12 mg/dL
same,blood glucose levels as compared to diabetic control group,"[3]; alone at therapeutic equivalent doses, day 28",significant improvement
